{"source": "patent US20240398836A1", "about": "“EPOXY STEROIDS” (priority 2021, published 2024)", "assay_type_in_all_cases": "cell-based", "key": {"[1]": {"test_system": "neuroblastoma cells (SKNAS cells), LiOn cells", "experiment": "Apoptosis in cytostatics-resistant solid tumor cells", "settings": "SKNAS cells and cisplatin-resistant LiOn cells (caspase-8 underexpression)", "method": "In contrast to conventional glucocorticoids, the steroid WIL 071 can induce apoptosis also in solid tumor cells.\nThe DNA fragmentation was measured by flow cytometry), see FIG. 8. The experiments were performed in triplicate. The error bars show the standard deviations of the measured values of three independent experiments."}, "[2]": {"test_system": "glioblastoma cells (DBTRG05MG cells)", "experiment": "Apoptosis in brain tumor cells", "method": "In contrast to conventional glucocorticoids, the steroid WIL 071 can induce apoptosis also in brain tumor cells.\nThe DNA fragmentation was measured by flow cytometry, see FIG. 9. The experiments were performed in triplicate. The error bars show the standard deviations of the measured values of three independent experiments."}, "Nalm-6 cells [3]": {"test_system": "Nalm-6 cells", "experiment": "Half-maximal apoptosis induction (AC50) in Nalm-6 cells", "settings": "Homo sapiens; Nalm-6, 72 h, flow cytometry; read-out: Biological effect: half-maximal apoptosis induction (AC50)", "method": "Apoptosis Induction in Nalm-6 Cells after Treatment with WIL-071 or Different Steroid Derivatives.\nThe cells were incubated in 6-well plates with 1.0·10^5 cells/mL in two milliliters of medium with the respective steroid derivative in different concentrations. The included solvent control (DMSO) served as a control, which was subtracted from all the other measured values, in order not to take into account the spontaneous apoptosis of the cells that takes place independently of the concentration of active ingredient. After 72 h, a modified cell cycle analysis was performed, in order to quantify the proportion of apoptotic cells by flow cytometry. For each concentration of the steroid, the respective mean values f standard deviations, n=3 (*: p<0.05 vs. DMSO, t test) were determined. Using the curve of the dose-effect relationship (steroid concentration−apoptosis induction) formed from these measured values, the steroid concentration at which apoptosis was triggered in 50% of the tested leukemia cells was read."}, "[4]": {"test_system": "pancreatic carcinoma cells (DAN-G)", "experiment": "Apoptosis in pancreatic carcinoma cells", "settings": "DAN-G cell line", "method": "In contrast to conventional glucocorticoids, the steroid WIL 071 can induce apoptosis also in pancreatic carcinoma cells.\nThe DNA fragmentation was measured by flow cytometry, see FIG. 11. The experiments were performed in triplicate. The error bars show the standard deviations of the measured values of three independent experiments.\nThe standard treatment for pancreatic carcinoma includes 5-fluorouracil."}, "NaKu cells": {"test_system": "NaKu cells", "experiment": "Apoptosis induction in steroid- and polycytostatics-resistant NaKu cells vs Nalm-6", "settings": "steroid- and polycytostatics-resistant leukemia cells (ALL)", "method": "The experiments were performed in triplicate. The error bars show the standard deviations of the measured values of three independent experiments.\nThe steroid WIL 071 overcomes steroid resistence in leukemia cells (NaKu cells). Further, the steroid-resistent leukemia cells (NaKu cells) have co-resistencies for the following cytostatics: • prednisolone, methylprednisolone, dexamethasone, • doxorubicin, daunorubicin, idarubicin, epirubicin • cytarabine, cladribine • etoposide • cyclophosphamide, ifosfamide • vindesine • cisplatin, carboplatin, oxaliplatin"}, "BJAB cells": {"test_system": "BJAB cells", "experiment": "Selectivity: apoptosis (DNA fragmentation, flow cytometry) in lymphoma cells", "method": "(§1) WIL 071 acts selectively in malignant cells that are proliferating.\n(§2) The DNA fragmentation was measured by flow cytometry, see FIG. 7. The experiments were performed in triplicate. The error bars show the standard deviations of the measured values of three independent experiments."}, "Nalm-6 cells [5]": {"test_system": "Nalm-6 cells", "experiment": "Selectivity: apoptosis (DNA fragmentation, flow cytometry) in leukemia cells", "method": "as §1, §2"}, "7-CCA cells": {"test_system": "7-CCA cells", "experiment": "Apoptosis induction in polycytostatics-resistant 7-CCA cells vs BJAB", "settings": "doxorubicin-resistant BJAB, caspase-3 underexpression", "method": "7-CCA cells are lymphoma cells (BJAB cells) that have been made resistent against doxorubin, and have a caspase-3 underexpression as a resistence mechanism. They have co-resistences for the following cytostatics: • vincristine, vinblastine, vindesine, vinorelbin, taxol • cytarabin, fudarabin, cladribin, clofarabin, • daunorubicin, doxorubicin, idarubicin, epirubicin • cisplatin, oxaliplatin\nThe experiments were performed in triplicate. The error bars show the standard deviations of the measured values of three independent experiments. The steroid WIL 071 overcomes steroid resistence in lymphoma cells (7-CCA cells)."}, "[6]": {"test_system": "primary glioblastoma cells of a patient", "experiment": "Apoptosis in primary human glioblastoma cells", "settings": "grade 4", "method": "In contrast to conventional glucocorticoids, the steroid WIL 071 can induce apoptosis also in primary human brain tumor cells.\nThe DNA fragmentation was measured by flow cytometry, see FIG. 10. The experiments were performed in triplicate. The error bars show the standard deviations of the measured values of three independent experiments."}, "Nalm-6 cells [7]": {"test_system": "Nalm-6 cells", "experiment": "Inhibition of proliferation in leukemia cells (Nalm-6)", "settings": "Nalm-6, 24 h, concentration-dependent", "method": "In leukemia cells (Nalm-6), cell proliferation is inhibited. After 24 h, 1×10^5 cells will have proliferated to almost threefold (2.97×10^5 cells), while cell proliferation is inhibited up to 100% in a concentration-dependent way by treatment with the steroid WIL 071, see FIG. 1. The experiments were performed in triplicate. The error bars show the standard deviations of the measured values of three independent experiments."}, "human primary leukocytes": {"test_system": "human primary leukocytes", "experiment": "Selectivity: apoptosis (DNA fragmentation, flow cytometry) in leukocytes", "method": "as §1, §2"}}, "data": [{"smiles": "CC(C)CCC[C@@H](C)[C@H]1CC[C@H]2[C@@H]3[C@H]4OC[C@@]5(CC[C@H](O)C[C@]5(O)C4=O)[C@H]3CC[C@]12C", "note": "[WIL-071, 3β,5α-dihydroxy-7β,19-epoxy-cholestan-6-one]", "values": [{"measurement": "apoptosis induction / overcoming of cytostatics resistance", "setting": "[1]", "value": "Resistances towards cytostatics are overcome"}, {"measurement": "apoptosis induction (DNA fragmentation)", "setting": "[2]", "value": "significantly induces apoptosis"}, {"measurement": "AC50", "setting": "Nalm-6 cells [3]", "value": 17.2, "unit": "µM"}, {"measurement": "apoptosis induction (DNA fragmentation)", "setting": "[4]", "value": "significantly induces apoptosis"}, {"measurement": "apoptosis induction in resistant NaKu cells compared with Nalm-6", "setting": "NaKu cells", "value": "induces as much apoptosis as in the non-resistent leukemia cells (Nalm-6)"}, {"measurement": "apoptosis induction (DNA fragmentation)", "setting": "BJAB cells", "value": "apoptosis is induced in a concentration-dependent way"}, {"measurement": "apoptosis induction (DNA fragmentation)", "setting": "Nalm-6 cells [5]", "value": "apoptosis is induced in a concentration-dependent way"}, {"measurement": "apoptosis induction in resistant 7-CCA cells compared with BJAB", "setting": "7-CCA cells", "value": "induces as much apoptosis as in the non-resistent lymphoma cells"}, {"measurement": "apoptosis induction (DNA fragmentation)", "setting": "[6]", "value": "significantly induces apoptosis"}, {"measurement": "inhibition of cell proliferation", "setting": "Nalm-6 cells [7]", "value": "up to 100%"}, {"measurement": "apoptosis induction (DNA fragmentation)", "setting": "human primary leukocytes", "value": "apoptosis is not induced"}]}]}
